Experimental data as given in ChEMBL document CHEMBL1201862, “PubChem BioAssay data set” (2004).
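Method: 48-hour compound exposure of cells in 96-well plates, five concentrations, linear interpolation of endpoints. Here, GI50 denotes the concentration required for 50% inhibition of growth.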 The source made the active and inactive calls. Rule as the data show it: active = GI50 up to about 1.1 µM and inactive = higher.

Assays:
Assay in all cases: NCI tumour cell line growth inhibition, 48 h
SF-295 = tested on: SF-295
SK-MEL-2 = tested on: SK-MEL-2
UO-31 = tested on: UO-31
CAKI-1 = tested on: CAKI-1
K562 = tested on: K562
OVCAR-3 = tested on: OVCAR-3
SF-268 = tested on: SF-268
RPMI-8226 = tested on: RPMI-8226
M14 = tested on: M14
IGROV-1 = tested on: IGROV-1
KM12 = tested on: KM12
786-0 = tested on: 786-0
PC-3 = tested on: PC-3
OVCAR-4 = tested on: OVCAR-4
T47D = tested on: T47D
SK-MEL-5 = tested on: SK-MEL-5
SR = tested on: SR
CCRF-CEM = tested on: CCRF-CEM

Measured: GI50

N=C(CSSCC(=N)NCC12CC3CC(CC(C3)C1)C2)NCC12CC3CC(CC(C3)C1)C2
inactive: SF-295 14.2 µM | SK-MEL-2 22.3 µM | UO-31 18.2 µM | CAKI-1 18.7 µM | K562 11.4 µM | OVCAR-3 16.1 µM | SF-268 37.7 µM | RPMI-8226 2.33 µM | M14 18.2 µM | IGROV-1 15.9 µM | KM12 14.1 µM | 786-0 29.9 µM | PC-3 14.9 µM | OVCAR-4 14.4 µM | T47D 17.9 µM | SK-MEL-5 20.2 µM

O=S(=O)(CCn1c(Sc2ccccc2)c(Sc2ccccc2)c2ccccc21)c1ccccc1
inactive: SF-295 > 100 µM | SR > 100 µM | CCRF-CEM > 100 µM | SK-MEL-2 > 100 µM | UO-31 > 100 µM | CAKI-1 55.8 µM | K562 > 100 µM | OVCAR-3 > 100 µM | SF-268 > 100 µM | RPMI-8226 > 100 µM | M14 > 100 µM | IGROV-1 > 100 µM | KM12 > 100 µM | 786-0 > 100 µM | PC-3 > 100 µM | OVCAR-4 > 100 µM | T47D > 100 µM | SK-MEL-5 > 100 µM

OCC1C(O)C(O)[C@@H]2SCCN12 (stereo partly drawn)
inactive: SF-295 > 100 µM | SR > 100 µM | CCRF-CEM > 100 µM | SK-MEL-2 > 100 µM | UO-31 > 100 µM | CAKI-1 > 100 µM | K562 > 100 µM | OVCAR-3 > 100 µM | SF-268 > 100 µM | RPMI-8226 > 100 µM | M14 > 100 µM | IGROV-1 > 100 µM | KM12 > 100 µM | 786-0 > 100 µM | PC-3 > 100 µM | OVCAR-4 > 100 µM | T47D > 100 µM | SK-MEL-5 > 100 µM

CCOC(=O)C1=C(C)N(CC(C)C)C2(O)C(OC)CC(=O)C3C(=O)N(c4ccccc4)C(=O)C132 (stereo not drawn)
inactive: SF-295 52.4 µM | SR 21.4 µM | CCRF-CEM 40.4 µM | SK-MEL-2 20.4 µM | UO-31 20 µM | CAKI-1 37 µM | K562 31.9 µM | OVCAR-3 43.3 µM | SF-268 60.1 µM | RPMI-8226 33 µM | M14 38.3 µM | IGROV-1 20.1 µM | KM12 25.9 µM | 786-0 66.4 µM | PC-3 34 µM | OVCAR-4 27.7 µM | T47D 47 µM | SK-MEL-5 20.1 µM

CC1(C)C(c2ccccc2)C12CCC1(C2=O)C(c2ccccc2)C1(C)C (stereo not drawn)
inactive: SF-295 19.4 µM | CCRF-CEM 18.9 µM | SK-MEL-2 19.7 µM | UO-31 19.9 µM | CAKI-1 23.1 µM | K562 20 µM | OVCAR-3 19.9 µM | SF-268 29.4 µM | RPMI-8226 14.3 µM | M14 23.3 µM | IGROV-1 31.8 µM | KM12 > 10 µM | 786-0 25.2 µM | OVCAR-4 31.3 µM | SK-MEL-5 18.7 µM

CCNC1=Nc2ccc(Cl)cc2C(c2ccccc2)=NN1
inactive: SF-295 19.2 µM | CCRF-CEM 38.4 µM | SK-MEL-2 16.7 µM | UO-31 30.2 µM | CAKI-1 15 µM | K562 6.38 µM | OVCAR-3 17.5 µM | SF-268 31.3 µM | RPMI-8226 29 µM | M14 17.3 µM | IGROV-1 22.4 µM | KM12 12.9 µM | 786-0 17.8 µM | OVCAR-4 31.6 µM | SK-MEL-5 14.8 µM

Cc1ccc(S(=O)(=O)NC(=O)Nc2cccc(S(N)(=O)=O)c2)cc1
inactive: SF-295 > 100 µM | SR > 100 µM | SK-MEL-2 > 100 µM | UO-31 > 100 µM | CAKI-1 > 100 µM | K562 > 100 µM | OVCAR-3 > 100 µM | SF-268 > 100 µM | RPMI-8226 > 100 µM | M14 > 100 µM | IGROV-1 > 100 µM | KM12 > 100 µM | 786-0 > 100 µM | PC-3 > 100 µM | OVCAR-4 > 100 µM | T47D > 100 µM | SK-MEL-5 > 100 µM

c1ccc(CCN2CCCCCC2)nc1
inactive: SF-295 > 100 µM | CCRF-CEM > 100 µM | SK-MEL-2 > 100 µM | UO-31 > 100 µM | CAKI-1 > 100 µM | K562 > 100 µM | OVCAR-3 > 100 µM | SF-268 > 100 µM | RPMI-8226 > 100 µM | M14 > 100 µM | IGROV-1 > 100 µM | KM12 > 100 µM | 786-0 > 100 µM | PC-3 > 100 µM | OVCAR-4 > 100 µM | T47D > 100 µM | SK-MEL-5 > 100 µM

c1ccc(CCN2CCc3[nH]c4ccccc4c3C2)cc1
inactive: SF-295 15.1 µM | SR 27.9 µM | CCRF-CEM 32.6 µM | UO-31 13.6 µM | K562 16.9 µM | SF-268 71.1 µM | RPMI-8226 > 10 µM | M14 17.1 µM | IGROV-1 23.9 µM | KM12 17.3 µM | 786-0 17.1 µM | OVCAR-4 40.4 µM | T47D 20.1 µM | SK-MEL-5 16.5 µM
